Assay results published in patent US11160807B1, “Methods, compositions and devices for treating cancer with illudofulvenes” (AF Chemicals, LLC, priority 2018, dated 2021).

What was measured:
[1] = system: MV522 Target Cell Line; experiment: 48 hour exposure, growth or viability by Trypan Blue Exclusion assay; assay type: cell-based; conditions: MV522, 48 h, read-out: Mean IC50 value, MV522 Target Cell Line, 48 hr exposure
Experimental: (§1) In various embodiments of the invention, the MV522 cell line represents a “target” cell line. […] The two hour toxicity data represents the concentration of a given analog for which a two hour exposure will inhibit 50% of the DNA synthesis activity in a given cell line. The 48 hour exposure data represents the concentration at which a given analog with a 48 hour exposure will inhibit the growth or viability in a given cell line as defined by the standard Trypan Blue Exclusion assay.

[2] = system: MCF7 (ER positive); experiment: cytotoxic IC50, 2 hour exposure; conditions: Homo sapiens, MCF7, 2 h, read-out: cytotoxic IC50 values, MCF7 (ER positive)
[3] = system: NCI DTP 60 cell line panel; experiment: NCI DTP 60 Cell Line screen: Growth Inhibition (GI50), Total Growth Inhibition (TGI), Lethal Concentration (LC50/LD); assay type: cell-based, human; conditions: mean over NCI DTP 60 cell line panel; for GI50: growth inhibition; for Mean LD50 cytotoxic: lethal concentration dose (cytotoxic effect); for Mean TGI cytostatic: total growth inhibition (cytostatic effect)
Experimental: In particular, an algorithm based on the obtained in vitro cell culture values (i.e. growth inhibition values (GI50), or the total growth inhibition (TGI), or the lethal concentration (LC50)) of cell lines (e.g., NCI60 cells) subjected to treatment with an illudofulvene, and gene expression is determined in these same cell lines (e.g., by microarray analysis, reverse transcriptase polymerase chain reaction (RT-PCR), quantitative real-time PCR (qPCR), or next generation sequencing). After normalization, genes with, e.g., a Pearson correlation coefficient greater than about 0.5 or below about −0.5 to one of the obtained in vitro cell culture values, can be classified as biomarkers of sensitivity or resistance, respectively. A probability or significance value can also be calculated for the correlation between the obtained in vitro cell culture values (i.e. growth inhibition values (GI50), or the total growth inhibition (TGI), or the lethal concentration (LC50)) and the normalized expression of a specific gene.
One can determine the growth inhibition (GI50), total growth inhibition (TGI), or lethal concentration (LC50) for a drug for each of the cell lines in the NCI DTP 60 cell line panel. One can use these 3 values to search for correlations against all gene expressions in all cell lines using the NCI's publicly available CELL MINER Software. Alternatively, one can down load for a specific gene its relative expression in each of the 60 cell lines using the NCI's publicly available COMPARE Software, and performs the expression for a specific gene.

[4] = system: NIH3T3 MYC+ and NIH3T3 MYC-null; experiment: influence of c-myc expression on cytotoxicity, Cell Count (%); conditions: for effect of c-myc (MYC) expression on cellular sensitivity: FIG. 4A-4D, cisplatin data not shown
[5] = system: Breast carcinomas
[6] = system: 8392B Nontarget Cell Line; experiment: two hour toxicity: 2 hr exposure, concentration inhibiting 50% of DNA synthesis activity; assay type: cell-based; conditions: at 26,000 nM ([…] μM)
Experimental: as §1

[7] = system: Epidermoid
[8] = system: T cell leukemias
[9] = system: MV522 cell line (a lung-derived adenocarcinoma cell line); experiment: tumor regression (FIG. 1); assay type: in vivo; conditions: MV522, FIG. 1
[10] = system: Ovarian
[11] = system: Prostate carcinomas
[12] = system: Lung carcinomas
[13] = system: XP-A, XP-B, XP-C, XP-D, XP-E, XP-F, CS-A, CS-B, ERCC1, ERCC5; experiment: DNA damage profile by DNA repair gene; assay type: cell-based; conditions: symbols not defined
[14] = system: Mechanism of Multi-drug Resistance; experiment: multidrug resistance: resistance by mechanism of multi-drug resistance
[15] = system: Fibroblasts (normal)
[16] = system: B cell leukemias
[17] = system: c-myc positive daughter line Myc/Rat1A (Myc/ER); experiment: role of c-myc in cytotoxicity, c-myc expression induced by 4-hydroxytamoxifen (4HOT); assay type: cell-based; conditions: FIG. 2
Excerpt: The expression of c-myc in this cell line is under the control of a modified receptor that responds to 4-hydroxytamoxifen (4HOT).

[18] = system: Myeloid leukemias

CC1=C(COCCO)C2=C(C)C3(CC3)[C@@](C)(O)C(=O)C2=C1 [Analog 022]
IC50 [1]: 680 ± 180 nM

CC1=C(CCC(=O)Oc2ccc3c(c2)CCC2C3CC[C@]3(C)C(O)CCC23)C2=C(C)C3(CC3)[C@@](C)(O)C(=O)C2=C1 (stereo partly shown) [Analog 108]
IC50 [2]: 14100 ± 2800 nM

COC(=O)C1=C(C(=O)OC)C23C=C(C)C1C2=C(C)C1(CC1)[C@@](C)(O)C3=O (stereo partly shown) [Illudofulvene Analog 0142]
GI50 [3]: 447 nM | Mean LD50 cytotoxic [3]: 53,700 nM | Mean TGI cytostatic [3]: 4,667 nM

CO[C@@]12[C@H](COC(N)=O)C3=C(C(=O)C(C)=C(N)C3=O)N1C[C@@H]1N[C@@H]12 [mitomycin C]
effect of c-myc (MYC) expression on cellular sensitivity [4]: did not alter cellular sensitivity | effect of c-myc (MYC) expression on cellular sensitivity ([4]; listed as Mitomycin C): not sensitive

CC[C@H](C)[C@H](NC(=O)[C@H]1CCCCN1C)C(=O)N(COC(=O)CC(C)C)[C@H](C[C@@H](OC(C)=O)c1nc(C(=O)N[C@@H](Cc2ccc(O)cc2)C[C@H](C)C(=O)O)cs1)C(C)C [Tubulysin A]
Mean LD50 cytotoxic [3]: >10,000 nM

N.N.[Cl][Pt][Cl] [cisplatin]
effect of c-myc (MYC) expression on cellular sensitivity [4]: did not alter cellular sensitivity

CC[C@@]1(O)C(=O)OCc2c1cc1n(c2=O)Cc2cc3c(CN(C)C)c(O)ccc3nc2-1 [topotecan]
effect of c-myc (MYC) expression on cellular sensitivity [4]: did not alter cellular sensitivity | effect of c-myc (MYC) expression on cellular sensitivity ([4]; listed as Topotecan): not sensitive

CCOCC1=C(C)C=C2C(=O)[C@](C)(O)C3(CC3)C(C)=C21 [Illudofulvene Analog 0016]
GI50 [3]: 102 nM | Mean LD50 cytotoxic [3]: 4,270 nM | Mean TGI cytostatic [3]: 1,070 nM

CC1=C(CO)C2=C(C)C3(CC3)[C@@](C)(O)C(=O)C2=C1 [Analog 002]
Cytotoxicity? 2 hr incubation [5]: Yes | Cytotoxicity? 48 hr incubation [5]: Yes | inhibitory effect on the nontarget 8392B cell line [6]: no inhibitory effect | Cytotoxicity? 2 hr incubation [7]: Yes | Cytotoxicity? 48 hr incubation [7]: Yes | Cytotoxicity? 2 hr incubation [8]: No | Cytotoxicity? 48 hr incubation [8]: Yes | tumor regression [9]: induce tumor regression | Cytotoxicity? 2 hr incubation [10]: Yes | Cytotoxicity? 48 hr incubation [10]: Yes | Cytotoxicity? 2 hr incubation [11]: Yes | Cytotoxicity? 48 hr incubation [11]: Yes | Cytotoxicity? 2 hr incubation [12]: Yes | Cytotoxicity? 48 hr incubation [12]: Yes | DNA damage profile ([13]; Gene XP-C): 0 | DNA damage profile ([13]; Gene XP-E): 0 | Resistance to Analog 001/Analog 002 ([14]; Mechanism: BRCA status): No | Resistance to Analog 001/Analog 002 ([14]; Mechanism: Bcl-2 expression): No | Resistance to Analog 001/Analog 002 ([14]; Mechanism: DNA repair): No | Resistance to Analog 001/Analog 002 ([14]; Mechanism: Gp170/MDR1): No | Resistance to Analog 001/Analog 002 ([14]; Mechanism: Gp180/MRP): No | Resistance to Analog 001/Analog 002 ([14]; Mechanism: MGMT expression): No | Resistance to Analog 001/Analog 002 ([14]; Mechanism: MVP/LRP (vault)): No | Resistance to Analog 001/Analog 002 ([14]; Mechanism: Microtubulin alteration): No | Resistance to Analog 001/Analog 002 ([14]; Mechanism: Myc expression): No | Resistance to Analog 001/Analog 002 ([14]; Mechanism: P21 status): No | Resistance to Analog 001/Analog 002 ([14]; Mechanism: P53 status): No | Resistance to Analog 001/Analog 002 ([14]; Mechanism: Thiol content/GST pi): No | Resistance to Analog 001/Analog 002 ([14]; Mechanism: Topoisomerase I): No | Resistance to Analog 001/Analog 002 ([14]; Mechanism: Topoisomerase II): No | dependence of activity on common resistance mechanisms ([14]; multi-medicant resistance phenotype, Bcl-2 over expression, p53 and p21/WAF1 mutations): independent | effect of c-myc (MYC) expression on cellular sensitivity [4]: become sensitive | increase in sensitivity conferred by expression of cellular c-myc ([4]; NIH3T3 MYC+ compared to parental c-myc null NIH3T3, based on decrease in cell count, FIG. 3): greater than 10 fold | Cytotoxicity? 2 hr incubation [15]: No | Cytotoxicity? 48 hr incubation [15]: Yes | Cytotoxicity? 2 hr incubation [16]: No | Cytotoxicity? 48 hr incubation [16]: Yes | sensitivity on expression of c-myc in the presence of 4HOT [17]: become sensitive | Cytotoxicity? 2 hr incubation [18]: Yes | Cytotoxicity? 48 hr incubation [18]: Yes

CC1=C2C(=CC(C)(C)[C@@H]2O)C(=O)[C@](C)(O)C12CC2 [Illudin M, illudin M, reference compound]
Mean LD50 cytotoxic [3]: 291 nM

CC(=O)OCC1(C)C=C2C(=O)[C@](C)(O)C3(CC3)C(C)=C2C1O (stereo partly shown) [Illudofulvene Analog 0159]
GI50 [3]: 117 nM | Mean LD50 cytotoxic [3]: 14,790 nM | Mean TGI cytostatic [3]: 2,090 nM
